Here are results for one molecule from patent US10168342B2, “Lipid probes and uses thereof” (THE SCRIPPS RESEARCH INSTITUTE, priority 2015, dated 2019).

What all share (assay): isoTOP-ABPP mapping of AEA-DA-modified peptides in Neuro2a cells
Type in all cases: cell-based

The target in assay [1] is T1, AEA-DA-modified peptides in Neuro2a cells (Mus musculus, UniProt O55234).
T1 construct: endogenous in cells; host or cells: Neuro2a
Conditions: AEA-DA-modified peptide PSMB5 O55234 141-151, SEQ ID NO 91; probe 100 μM, 12 replicates.

In assay [2] the target is T2, AEA-DA-modified peptides in Neuro2a cells (Mus musculus, UniProt P58281).
T2 construct: endogenous in cells; host or cells: Neuro2a
The settings on record: AEA-DA-modified peptide OPA1 P58281 801-819, SEQ ID NO 74; probe 100 μM, 12 replicates.

Assay [3] deals with T3, AEA-DA-modified peptides in Neuro2a cells (Mus musculus, UniProt Q80UU9).
T3 construct: endogenous in cells; host or cells: Neuro2a
Conditions: probe 100 μM, 12 replicates.

In assay [4] the target is T4, AEA-DA-modified peptides in Neuro2a cells (Mus musculus, UniProt P57780).
T4 construct: endogenous in cells; host or cells: Neuro2a
Conditions: AEA-DA-modified peptide ACTN4 P57780 839-855, SEQ ID NO 4; probe 100 μM, 12 replicates.

For assay [5], the target named is T5, AEA-DA-modified peptides in Neuro2a cells (Mus musculus, UniProt Q6PIC6).
T5 construct: endogenous in cells; host or cells: Neuro2a
The settings on record: AEA-DA-modified peptide ATP1A3 Q6PIC6 350-376, SEQ ID NO 18; probe 100 μM, 12 replicates.

In assay [6] the target is T6, AEA-DA-modified peptides in Neuro2a cells (Mus musculus, UniProt Q9DBL9).
T6 construct: endogenous in cells; host or cells: Neuro2a
The settings on record: AEA-DA-modified peptide ABHD5 Q9DBL9 321-343, SEQ ID NO 2; probe 100 μM, 12 replicates.

In assay [7] the target is T7, AEA-DA-modified peptides in Neuro2a cells (Mus musculus, UniProt Q9JKF7).
T7 construct: endogenous in cells; host or cells: Neuro2a
Conditions: AEA-DA-modified peptide MRPL39 Q9JKF7 154-166, SEQ ID NO 61; probe 100 μM, 12 replicates.

Assay [8] addresses T8, AEA-DA-modified peptides in Neuro2a cells (Mus musculus, UniProt Q9Z0V8).
T8 construct: endogenous in cells; host or cells: Neuro2a
Conditions: probe 100 μM, 12 replicates.

Assay [9] concerns the target T9, AEA-DA-modified peptides in Neuro2a cells (Mus musculus, UniProt Q8C4B4).
T9 construct: endogenous in cells; host or cells: Neuro2a
The settings on record: AEA-DA-modified peptide UNC119B Q8C4B4 142-151, SEQ ID NO 118; probe 100 μM, 12 replicates.

In assay [10] the target is T10, AEA-DA-modified peptides in Neuro2a cells (Mus musculus, UniProt Q60716).
T10 construct: endogenous in cells; host or cells: Neuro2a
Conditions: AEA-DA-modified peptide P4HA2 Q60716 177-197, SEQ ID NO 76; probe 100 μM, 12 replicates.

Assay [11] deals with T11, AEA-DA-modified peptides in Neuro2a cells (Mus musculus, UniProt Q99LR1).
T11 construct: endogenous in cells; host or cells: Neuro2a
The settings on record: AEA-DA-modified peptide ABHD12 Q99LR1 263-284, SEQ ID NO 1; probe 100 μM, 12 replicates.

T3 sequence (Q80UU9 whole entry): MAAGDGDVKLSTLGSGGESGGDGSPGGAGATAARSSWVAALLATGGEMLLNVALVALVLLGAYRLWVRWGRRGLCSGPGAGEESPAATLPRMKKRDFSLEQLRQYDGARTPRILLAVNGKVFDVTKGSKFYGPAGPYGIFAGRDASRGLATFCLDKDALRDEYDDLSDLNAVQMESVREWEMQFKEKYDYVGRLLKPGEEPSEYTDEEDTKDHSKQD
T8 sequence (Q9Z0V8 whole entry): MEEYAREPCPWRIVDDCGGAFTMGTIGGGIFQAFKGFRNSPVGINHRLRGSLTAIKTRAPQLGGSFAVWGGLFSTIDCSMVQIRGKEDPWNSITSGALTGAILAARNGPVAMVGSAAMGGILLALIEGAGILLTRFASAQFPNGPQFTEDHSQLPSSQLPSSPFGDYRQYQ
T4 sequence (P57780 whole entry): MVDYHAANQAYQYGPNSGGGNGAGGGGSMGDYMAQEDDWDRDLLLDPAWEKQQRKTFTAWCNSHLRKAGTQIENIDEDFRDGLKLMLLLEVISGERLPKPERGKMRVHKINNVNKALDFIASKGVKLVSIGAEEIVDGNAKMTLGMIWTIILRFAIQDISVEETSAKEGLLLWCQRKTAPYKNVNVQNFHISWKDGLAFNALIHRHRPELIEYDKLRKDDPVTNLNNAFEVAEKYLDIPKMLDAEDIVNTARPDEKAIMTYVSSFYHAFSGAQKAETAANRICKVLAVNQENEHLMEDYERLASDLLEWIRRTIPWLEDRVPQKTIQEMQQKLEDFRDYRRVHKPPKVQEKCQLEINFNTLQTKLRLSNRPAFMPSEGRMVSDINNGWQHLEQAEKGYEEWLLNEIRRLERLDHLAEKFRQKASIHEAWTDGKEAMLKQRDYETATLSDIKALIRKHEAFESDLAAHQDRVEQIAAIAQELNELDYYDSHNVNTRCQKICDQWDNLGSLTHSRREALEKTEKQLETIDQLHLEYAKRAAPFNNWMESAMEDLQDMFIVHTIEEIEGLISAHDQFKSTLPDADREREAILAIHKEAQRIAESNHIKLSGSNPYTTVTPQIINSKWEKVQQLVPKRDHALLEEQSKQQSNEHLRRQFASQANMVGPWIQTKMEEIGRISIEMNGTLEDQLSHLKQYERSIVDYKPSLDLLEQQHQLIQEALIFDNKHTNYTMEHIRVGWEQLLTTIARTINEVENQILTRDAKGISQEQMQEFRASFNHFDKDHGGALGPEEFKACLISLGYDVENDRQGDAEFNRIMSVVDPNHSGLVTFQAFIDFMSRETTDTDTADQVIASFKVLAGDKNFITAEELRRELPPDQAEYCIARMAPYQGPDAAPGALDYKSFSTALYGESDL
T10 sequence (Q60716 24-537): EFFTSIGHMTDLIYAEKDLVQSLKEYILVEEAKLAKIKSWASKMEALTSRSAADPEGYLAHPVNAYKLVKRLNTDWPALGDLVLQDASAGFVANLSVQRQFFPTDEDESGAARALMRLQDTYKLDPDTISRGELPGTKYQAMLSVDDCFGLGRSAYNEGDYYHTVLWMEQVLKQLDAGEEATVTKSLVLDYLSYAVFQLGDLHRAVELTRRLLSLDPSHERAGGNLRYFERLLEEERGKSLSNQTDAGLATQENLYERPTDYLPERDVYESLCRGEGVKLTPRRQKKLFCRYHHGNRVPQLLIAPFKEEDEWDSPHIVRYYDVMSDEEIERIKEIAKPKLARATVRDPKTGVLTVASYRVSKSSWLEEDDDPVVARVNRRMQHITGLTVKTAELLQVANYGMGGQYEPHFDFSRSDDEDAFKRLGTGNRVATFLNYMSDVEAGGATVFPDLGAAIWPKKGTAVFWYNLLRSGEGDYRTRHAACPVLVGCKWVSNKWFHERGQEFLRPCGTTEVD
T6 sequence (Q9DBL9 whole entry): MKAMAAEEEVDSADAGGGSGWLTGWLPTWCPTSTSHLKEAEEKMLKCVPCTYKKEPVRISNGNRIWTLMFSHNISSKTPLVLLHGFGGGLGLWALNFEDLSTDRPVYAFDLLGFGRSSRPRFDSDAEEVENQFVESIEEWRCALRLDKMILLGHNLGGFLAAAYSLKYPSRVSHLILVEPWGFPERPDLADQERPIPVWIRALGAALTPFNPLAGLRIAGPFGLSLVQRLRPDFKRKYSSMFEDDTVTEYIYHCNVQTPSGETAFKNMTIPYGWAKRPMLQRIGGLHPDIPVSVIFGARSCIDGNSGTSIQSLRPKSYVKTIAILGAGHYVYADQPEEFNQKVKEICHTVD
T1 sequence (O55234 60-264): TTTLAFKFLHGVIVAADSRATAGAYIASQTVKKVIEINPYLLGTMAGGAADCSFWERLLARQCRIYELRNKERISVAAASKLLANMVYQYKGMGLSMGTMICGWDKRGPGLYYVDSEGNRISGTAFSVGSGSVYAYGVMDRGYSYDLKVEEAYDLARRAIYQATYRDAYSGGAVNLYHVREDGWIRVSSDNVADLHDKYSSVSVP
T11 sequence (Q99LR1 whole entry): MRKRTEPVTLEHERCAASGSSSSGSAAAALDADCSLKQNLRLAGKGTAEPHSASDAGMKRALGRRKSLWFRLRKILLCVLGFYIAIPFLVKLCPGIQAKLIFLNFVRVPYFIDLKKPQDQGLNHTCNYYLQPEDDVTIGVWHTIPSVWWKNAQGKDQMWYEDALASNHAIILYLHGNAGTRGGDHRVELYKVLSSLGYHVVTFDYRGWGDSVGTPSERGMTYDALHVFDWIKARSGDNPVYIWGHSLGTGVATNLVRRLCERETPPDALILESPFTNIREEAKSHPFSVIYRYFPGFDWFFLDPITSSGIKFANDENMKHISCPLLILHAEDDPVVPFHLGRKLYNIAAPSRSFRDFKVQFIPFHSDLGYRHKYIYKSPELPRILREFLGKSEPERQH
T9 sequence (Q8C4B4 whole entry): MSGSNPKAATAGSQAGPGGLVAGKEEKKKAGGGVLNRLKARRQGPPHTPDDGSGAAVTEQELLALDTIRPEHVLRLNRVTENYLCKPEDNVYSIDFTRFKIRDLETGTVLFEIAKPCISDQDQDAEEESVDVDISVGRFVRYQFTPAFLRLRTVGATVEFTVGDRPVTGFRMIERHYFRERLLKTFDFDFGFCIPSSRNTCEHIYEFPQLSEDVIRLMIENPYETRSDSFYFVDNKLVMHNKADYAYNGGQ
T2 sequence (P58281 88-960): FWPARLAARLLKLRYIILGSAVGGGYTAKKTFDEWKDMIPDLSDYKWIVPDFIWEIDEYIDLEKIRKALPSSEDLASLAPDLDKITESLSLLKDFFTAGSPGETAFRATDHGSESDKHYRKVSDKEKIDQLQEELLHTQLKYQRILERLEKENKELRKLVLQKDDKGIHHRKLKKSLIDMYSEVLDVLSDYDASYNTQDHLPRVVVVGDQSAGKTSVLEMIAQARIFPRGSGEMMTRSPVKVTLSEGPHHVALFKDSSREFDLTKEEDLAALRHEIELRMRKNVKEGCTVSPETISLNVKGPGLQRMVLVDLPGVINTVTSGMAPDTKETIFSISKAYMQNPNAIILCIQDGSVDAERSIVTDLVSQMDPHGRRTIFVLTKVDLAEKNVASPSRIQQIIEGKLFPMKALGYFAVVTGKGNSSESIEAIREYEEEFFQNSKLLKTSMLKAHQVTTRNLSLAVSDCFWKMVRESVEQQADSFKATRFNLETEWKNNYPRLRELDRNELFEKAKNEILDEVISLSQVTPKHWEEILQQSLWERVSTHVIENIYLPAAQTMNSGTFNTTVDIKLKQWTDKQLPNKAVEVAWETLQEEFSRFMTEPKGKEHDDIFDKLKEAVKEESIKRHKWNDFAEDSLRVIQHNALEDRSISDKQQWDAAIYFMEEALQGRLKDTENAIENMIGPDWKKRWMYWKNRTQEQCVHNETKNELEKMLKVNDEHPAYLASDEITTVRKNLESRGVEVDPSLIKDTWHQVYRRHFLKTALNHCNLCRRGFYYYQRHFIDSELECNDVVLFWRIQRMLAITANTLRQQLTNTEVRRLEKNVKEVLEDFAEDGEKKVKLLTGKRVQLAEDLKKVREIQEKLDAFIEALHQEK

On to `C#CCCCC1(CC/C=C\C/C=C\C/C=C\CCCC(=O)NCCO)N=N1` [AEA-DA, (5Z,8Z,11Z)-N-(2-hydroxyethyl)-14-(3-(pent-4-yn-1-yl)-3H-diazirin-3-yl)tetradeca-5,8,11-trienamide], for which the Times observed in [1] is recorded as 11; in assay [2], 2; in assay [3] (AEA-DA-modified peptide PGRMC2 Q80UU9 74-92, SEQ ID NO 84), 2; in assay [3] (AEA-DA-modified peptide PGRMC2 Q80UU9 130-144, SEQ ID NO 83), 9; in assay [4], 2; in [5] it was 2. In addition, the Times observed in assay [6] worked out at 6; in [7] it was 4; in [8] (AEA-DA-modified peptide TIMM17A Q9Z0V8 13-36, SEQ ID NO 111) it was 9; in assay [8] (AEA-DA-modified peptide TIMM17A Q9Z0V8 85-107, SEQ ID NO 112) it was 4; in [9], 3; in assay [10], 3. This molecule also yielded a Times observed in assay [11] of 2.
